From patent publication US9714266B2, “Estra-1,3,5(10),16-tetraene-3-carboxamides for inhibition of 17β-hydroxysteroid dehydrogenase (AKR1C3)” (priority 2013, dated 2017) come the findings set out here.

Data set [1] has as its target T1, AKR1C3 (Homo sapiens (Human), UniProt P42330). The experiment in a line: AKR1C3 enzyme assay (coumberone reduction, fluorescence). In kind it is biochemical. The note with it: recombinant human AKR1C3, coumberone 0.3 μM, NADPH 10 μM; read-out: AKR1C3 enzyme inhibition IC50. The protocol: The AKR1C3-inhibitory action of the substances of this invention was measured in the AKR1C3 assay described in the paragraphs which follow. Essentially, the enzyme activity is measured by quantifying the coumberol formed from coumberone ([…]., and […]. AM. CHEM. SOC. 130, 14123-14128 (2008) […]., Bauman, D. R., Penning, T. M., and […]., Proc. Natl. Acad. Sci. USA 103, 13304-13309 (2006)). In this assay, the increase in the highly fluorescent coumberol can be determined by NADPH (nicotinamide adenine dinucleotide phosphate)-dependent reduction of the nonfluorescent coumberone by AKR1C3. […] NM_003739). This was expressed as the GST (glutathione S-transferase) fusion protein in E. coli and purified by means of glutathione-Sepharose affinity chromatography. The GST was removed by thrombin digestion with subsequent size exclusion chromatography (Dufort, I., Rheault, P., Huang, X F., Soucy, P., and Luu-The, V., Endocrinology 140, 568-574 (1999)). […] The concentration of the AKR1C3 was matched to the respective activity of the enzyme preparation and set such that the assay worked within the linear range. Typical concentrations were in the region of 1 nM. The reaction was stopped by adding 5 μl of a stop solution consisting of the inhibitor EM-1404 [F. Labrie et al. U.S. Pat. […] Subsequently, the fluorescence of coumberol was measured at 520 nm (excitation at 380 nm) with a suitable measuring instrument (Pherastar from BMG Labtechnologies).

Data set [2] in a line: Kinetic solubility by laser nephelometry. In kind it is physicochemical. The note with it: kinetic from dmso stock. How it is done: The kinetic solubilities of the inventive substances were determined by laser nephelometry.
The data were recorded using the following instruments:
Liquid handling system: Hamilton Star
Nephelometer: Nepheloskan Ascent
The following chemicals and materials were used: […]
disodium hydrogenphosphate dihydrate potassium dihydrogenphosphate
Preparation of phosphate buffer pH 7.4:
• Solution 1: 9.71 g of disodium hydrogenphosphate dihydrate and • 1.65 g of potassium dihydrogenphosphate dissolved in 1 liter of water • Solution 2: 10 mg of gum arabic dissolved in 1 liter of water […]
150 ml of solution 1 and 100 ml of solution 2 were diluted with 750 ml of water.
150 μl of a 10 mM DMSO stock solution were pipetted into a plate (deep-well plate, Abgene, PP, 1.2 ml). The stock solution was diluted with DMSO, which led to a new multi-titre plate (MTP, Greiner bio-one, PS, V-Form) with eight concentrations: 10/5/2.5/1.25/0.625/0.313/0.156 and 0.078 mM. 261 μl of phosphate buffer were transferred into a further plate (96 cliniplate, UB Thermo Electron Corporation) and admixed with 9 μl of the DMSO stock solutions.
The concentration of the DMSO cosolvent was kept constant at 3%.
The plates obtained (cliniplates) were analysed in the nephelometer.

Data set [3] has as its target T1, AKR1C3. Put plainly: AKR1C3 inhibition in a cell-based system (transfected HEK293 cells, coumberol fluorescence). The settings on record: HEK293 cells transfected with AKR1C3 expression plasmid; read-out: Cellular AKR1C3 inhibition IC50. The protocol:
The inhibition of AKR1C3 by the substances described in this invention was measured in a cell-based assay using […] as the substrate for the AKR1C3 (Halim, M., Yee, D. J., and Sames, D., J. AM. CHEM. SOC. 130, 14123-14128 (2008) and Yee, D. J., Balsanek, V., Bauman, D. R., Penning, T. M., and Sames, D., Proc. Natl. Acad. Sci. USA 103, 13304-13309 (2006)) (cf. Example 48).
The cell system used was HEK293 cells (ATCC, USA) (cell culture medium: DMEM, 1.5 g of glucose, 10% FCS, PSG). The cells were transfected with an AKR1C3 expression plasmid (pCMV6-AC-AKR1C3, GenBank Accession No. NM_003739.4) overnight (X-tremeGENE HP, Roche). The next morning, the cells were sown into black 96-well culture plates with a cell density of 40 000 cells/well (Greiner Bio-One, Frickenhausen, Germany). 7 h later, the cells were incubated with the test substances (dissolved in 100× concentration in DMSO, final concentration between 10^−11M and 10^−5M) and […] (dissolved in cell culture medium, final concentration 5×10^−6M) overnight. The following morning, the fluorescence of coumberol was measured at 535 nm (excitation at 355 nm) with a suitable measuring instrument (Mithras, from Berthold). […] The data were normalized (transfected cells without inhibitor, only DMSO=0% inhibition; transfected cells, 10 μM EM-1404 inhibitor [F. Labrie et al. U.S. Pat. No. 6,541,463, 2003]=100% inhibition) and IC50 values were calculated by a 4-parameter fit.

Where [4] appears, read: phosphate buffer with 3% DMSO, aqueous buffer, phosphate buffer pH 7.4, 3% DMSO, read-out: Nephelometric solubility at pH = 7.4.

SMILES strings stand for the structures. Values after ≈ are worked out from the molar mass of the structure shown. Values joined by “and” are separate entries in the source; they are usually repeats but may differ in a detail not shown here. Equal values may be shown once. Read-outs that look alike come from different tables or passages of the source.

T1 sequence (P42330 whole entry): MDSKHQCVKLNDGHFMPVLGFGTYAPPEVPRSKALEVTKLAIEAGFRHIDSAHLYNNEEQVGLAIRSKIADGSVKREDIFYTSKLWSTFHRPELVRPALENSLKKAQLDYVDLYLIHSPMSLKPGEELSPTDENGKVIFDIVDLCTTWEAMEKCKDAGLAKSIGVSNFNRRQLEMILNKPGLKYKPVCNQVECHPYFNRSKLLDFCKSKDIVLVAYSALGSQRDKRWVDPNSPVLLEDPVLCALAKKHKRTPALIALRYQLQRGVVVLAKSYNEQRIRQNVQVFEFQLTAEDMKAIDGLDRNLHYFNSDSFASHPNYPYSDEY

On to `CN(CC(O)CO)C(=O)c1ccc2c(c1)CC[C@@H]1[C@@H]2CC[C@]2(C)C(c3cncc(F)c3)=CC[C@@H]12` (mixture of isomers) [Example 35, N—[(RS)-2,3-dihydroxypropyl]-17-(5-fluoropyridin-3-yl)-N-methyloestra-1,3,5(10),16-tetraene-3-carboxamide], for which the half-inhibitory concentration (IC50) on AKR1C3 [1] was determined as 17 nM. In addition, the solubility in data set [2] (setting [4]) was determined as 22 µg/mL.

For the compound `C[C@]12CC[C@@H]3c4ccc(C(=O)N5CCC[C@H]5c5nnn[nH]5)cc4CC[C@H]3[C@@H]1CC=C2c1cncc(F)c1` [Example 28, 17-(5-fluoropyridin-3-yl)oestra-1,3,5(10),16-tetraen-3-yl (S)-2-(1H-tetrazol-5-yl)pyrrolidin-1-yl ketone], on AKR1C3 [1], the IC50 is 9 nM. The solubility in data set [2] (pH 7.4, aqueous buffer) stood at 166 µg/mL (≈ 333 µM).

Consider `CC(C)[C@H](CO)NC(=O)c1ccc2c(c1)CC[C@@H]1[C@@H]2CC[C@]2(C)C(c3cncc(F)c3)=CC[C@@H]12` [Example 16, 17-(5-fluoropyridin-3-yl)-N—[(R)-1-(hydroxymethyl)-2-methylpropyl]oestra-1,3,5(10),16-tetraene-3-carboxamide], for which the IC50 at AKR1C3 [1] is 15 nM and 42 nM; at AKR1C3 [3], 97 nM and 74 nM.

With `C[C@]12CC[C@@H]3c4ccc(C(=O)N5CCC[C@@H](O)C5)cc4CC[C@H]3[C@@H]1CC=C2c1cncc(F)c1` [Example 17, 17-(5-fluoropyridin-3-yl)oestra-1,3,5(10),16-tetraen-3-yl (R)-3-hydroxypiperidin-1-yl ketone], the IC50 on AKR1C3 [1] is 29 nM and 20 nM; on AKR1C3 [3] it was 34 nM and 28 nM.

As to `C[C@@H](CO)NC(=O)c1ccc2c(c1)CC[C@@H]1[C@@H]2CC[C@]2(C)C(c3cncc(F)c3)=CC[C@@H]12` [Example 40, 17-(5-fluoropyridin-3-yl)-N—[(S)-1-(hydroxymethyl)ethyl]oestra-1,3,5(10),16-tetraene-3-carboxamide], in data set [2] (pH 7.4, aqueous buffer), the concentration in solution (solubility) came to 145 µg/mL (≈ 334 µM).

Take `CNC(=O)[C@@H]1CCCN1C(=O)c1ccc2c(c1)CC[C@@H]1[C@@H]2CC[C@]2(C)C(c3cncc(F)c3)=CC[C@@H]12` [Example 29, 1-{[17-(5-fluoropyridin-3-yl)oestra-1,3,5(10),16-tetraen-3-yl]carbonyl}-N-methyl-L-prolinamide]: the IC50 on AKR1C3 [1] came out at 10 nM. This compound showed a solubility in data set [2] (pH 7.4, aqueous buffer) of 24 µg/mL (≈ 49.2 µM).

With `C[C@]12C[C@H](F)[C@@H]3c4ccc(C(N)=O)cc4CC[C@H]3[C@@H]1CC=C2c1cncc(F)c1` [Example 7, 11β-fluoro-17-(5-fluoropyridin-3-yl)oestra-1,3,5(10),16-tetraene-3-carboxamide], the concentration for half-maximal inhibition (IC50) at AKR1C3 [1] was 27 nM; on AKR1C3 [3], 83 nM and 150 nM.

Take `CC1(CNC(=O)c2ccc3c(c2)CC[C@@H]2[C@@H]3CC[C@]3(C)C(c4cncc(F)c4)=CC[C@@H]23)COC1` [Example 43, 17-(5-fluoropyridin-3-yl)-N-[(3-methyloxetan-3-yl)methyl]oestra-1,3,5(10),16-tetraene-3-carboxamide]: the IC50 at AKR1C3 [1] came to 7 nM. The same compound came in with a solubility in data set [2] (pH 7.4, aqueous buffer) of 154 µg/mL (≈ 334 µM).

With `C[C@]12CC[C@@H]3c4ccc(C(=O)NC[C@H](O)CO)cc4CC[C@H]3[C@@H]1CC=C2c1cncc(F)c1` [Example 33, N—[(S)-2,3-dihydroxypropyl]-17-(5-fluoropyridin-3-yl)oestra-1,3,5(10),16-tetraene-3-carboxamide], the IC50 on AKR1C3 [1] was 4 nM and 5 nM. Further, the solubility in data set [2] (setting [4]) amounted to 80 µg/mL (≈ 178 µM).

For `C[C@]12CC[C@@H]3c4ccc(C(=O)NCc5nnn[nH]5)cc4CC[C@H]3[C@@H]1CC=C2c1cncc(F)c1` [Example 22, 17-(5-fluoropyridin-3-yl)-N-(1H-tetrazol-5-ylmethyl)oestra-1,3,5(10),16-tetraene-3-carboxamide], at AKR1C3 [1], the IC50 is 5 nM. The solubility in data set [2] (pH 7.4, aqueous buffer) was determined as 153 µg/mL (≈ 334 µM).

On to `C[C@@H](O)CNC(=O)c1ccc2c(c1)CC[C@@H]1[C@@H]2CC[C@]2(C)C(c3cncc(F)c3)=CC[C@@H]12` [Example 38, 17-(5-fluoropyridin-3-yl)-N—[(R)-2-hydroxypropyl]oestra-1,3,5(10),16-tetraene-3-carboxamide], for which the IC50 at AKR1C3 [1] was 4 nM. The compound also came in with a solubility in data set [2] (pH 7.4, aqueous buffer) of 145 µg/mL (≈ 334 µM).

As for `C[C@]12CC[C@@H]3c4ccc(C(=O)NCCc5nnn[nH]5)cc4CC[C@H]3[C@@H]1CC=C2c1cncc(F)c1` [Example 21, 17-(5-fluoropyridin-3-yl)-N-[2-(1H-tetrazol-5-yl)ethyl]oestra-1,3,5(10),16-tetraene-3-carboxamide], the IC50 at AKR1C3 [1] is 5 nM. In data set [2] (pH 7.4, aqueous buffer), this compound returned a solubility of 158 µg/mL (≈ 334 µM).

As for `C[C@@H](CO)CCNC(=O)c1ccc2c(c1)CC[C@@H]1[C@@H]2CC[C@]2(C)C(c3cncc(F)c3)=CC[C@@H]12` [Example 12, 17-(5-fluoropyridin-3-yl)-N—[(R)-3-(hydroxymethyl)butyl]estra-1,3,5(10),16-tetraene-3-carboxamide], the IC50 at AKR1C3 [1] was 21 nM and 20 nM; on AKR1C3 [3], 68 nM and 96 nM and 43 nM and 23 nM.

As to `C[C@]12CC[C@@H]3c4ccc(C(=O)NCCOCCO)cc4CC[C@H]3[C@@H]1CC=C2c1cncc(F)c1` [Example 46, 17-(5-fluoropyridin-3-yl)-N-[2-(2-hydroxyethoxy)ethyl]oestra-1,3,5(10),16-tetraene-3-carboxamide], the IC50 at AKR1C3 [1] stood at 6 nM.

Regarding `CN(CCCO)C(=O)c1ccc2c(c1)CC[C@@H]1[C@@H]2CC[C@]2(C)C(c3cncc(F)c3)=CC[C@@H]12` [Example 34, 17-(5-fluoropyridin-3-yl)-N-(3-hydroxypropyl)-N-methyloestra-1,3,5(10),16-tetraene-3-carboxamide], at AKR1C3 [1], the IC50 came to 6 nM.

`CC1(C)CC[C@@]2(CC[C@H]3[C@@H]4CCc5cc(C(N)=O)ccc5[C@H]4CC[C@@]32C)OC1=O` [EM-1404, reference compound]: the solubility in data set [2] (setting [4]) is 18 µg/mL (≈ 45.5 µM).

For the compound `COc1cncc(C2=CC[C@H]3[C@@H]4CCc5cc(C(N)=O)ccc5[C@H]4CC[C@]23C)c1` [Example 2, 17-(5-methoxypyridin-3-yl)oestra-1,3,5(10),16-tetraene-3-carboxamide], the IC50 at AKR1C3 [1] is 189 nM and 100 nM.
